Reference: US20120135089A1, “E3 LIGASE INHIBITORS” (priority 2009, published 2012)
Entries after “also recorded” stand apart in the source; their conditions may differ.

How the values were obtained:
[1] = system: Mdm2, p21, puma, and bax transcripts; experiment: qRT-PCR of p53 target genes in RKO cells; format: cell-based, human; conditions: 5 μg/ml MEL23, 24 or 48 hours
Experimental: (§1) RKO cells were treated with 5 μg/ml (14 μM) MEL23 for 24 or 48 hours. Quantitative real-time PCR was used to analyze the mRNA levels of the Mdm2, p21, puma, and bax transcripts. All values are normalized to no treatment, DMSO control. The figure is representative of three independent experiments and standard error bars represent intra-experimental error.
as §1, with “48 hours, 0.1 μg/ml (0.2 μM) doxorubicin for 48 hours, or 10 μM ALLN for 24” for “48”, “analyze” for “analyze the”, “were” for “are”, “treatment (NT),” for “treatment,”
RNA was harvested using RNeasy Mini kit (Qiagen, Cat. No. 74104) and first-strand cDNA synthesis was performed with the TaqMan Reverse Transcription Reagents for qRT-PCR (Applied Biosystems Inc., Foster City, Calif., Cat. No. N8080234) according to the manufacturers' protocol. Samples were analyzed by quantitative real-time PCR on an ABI 7300 real-time PCR instrument (Applied Biosystems) using the ΔΔCT method. PCR reaction mixtures contained 75 ng of cDNA, 1×SYBR Green Mix (Applied Biosystems, Cat. No. 4367659), and 100 nM primers. Values were normalized to those of the hprt1 housekeeping gene (47).

full-length Flag-Mdm2 = molecular target: T1, full-length Flag-Mdm2 (Homo sapiens, UniProt Q00987); experiment: in vitro ubiquitination assay, full-length Flag-Mdm2; format: biochemical
T1 construct: 100 ng of full-length Flag-Mdm2; made in house; host or cells: Sf9 insect cells (baculovirus; virus a gift from S. Grossman)
T1 sequence (Q00987 whole entry): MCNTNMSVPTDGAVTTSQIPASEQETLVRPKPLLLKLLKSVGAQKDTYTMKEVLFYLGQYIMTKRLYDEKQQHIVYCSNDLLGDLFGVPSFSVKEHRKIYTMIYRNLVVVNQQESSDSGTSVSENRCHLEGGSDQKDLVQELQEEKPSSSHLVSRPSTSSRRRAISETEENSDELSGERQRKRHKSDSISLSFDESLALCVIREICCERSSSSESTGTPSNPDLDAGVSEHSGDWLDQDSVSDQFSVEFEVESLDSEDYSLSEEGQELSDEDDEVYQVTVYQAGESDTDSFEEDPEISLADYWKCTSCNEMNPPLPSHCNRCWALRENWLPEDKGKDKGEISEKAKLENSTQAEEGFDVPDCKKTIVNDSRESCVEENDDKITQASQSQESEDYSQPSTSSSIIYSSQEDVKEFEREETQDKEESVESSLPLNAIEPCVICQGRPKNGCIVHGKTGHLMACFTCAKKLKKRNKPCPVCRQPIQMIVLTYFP
Experimental: These assays were performed with 100 ng of full-length Flag-Mdm2 or 200 ng of Flag-Mdm2/HA-MdmX complexes (100 ng of each protein as each are present in a 1:1 ratio, when purified), ^32P-labeled ubiquitin, UbCH5c, and E1. Following a 30-minute incubation at 37° C., reactions were terminated and resolved on a SDS-PAGE gel followed by autoradiography. PC indicates positive control, and NC indicates negative control with UbCH5C eliminated from the reaction. The gels were quantified by phosphoimaging using ImageQuant software (GE Healthcare Bio-Sciences Corp., Piscataway, N.J.). […] Reactions were performed as in FIG. 11A except 500 ng GST-Mdm2 (residues 400-491) and GST-MdmX (residues 400-490) were used for ubiquitin polymerization. […]
(§2) Full-length Mdm2 in vitro ubiquitination reactions were performed in 15 μl reaction mixtures containing 50 mM TrisHC1 pH 7.5, 5 mM MgCl2, 2 mM NaF, 2 mM ATP, 0.6 mM DTT, 50 ng E1 (Boston Biochem, Cat. No. E-305), 1 μg PK-ubiquitin, 50 ng His-UbCH5C, and 100 ng Flag-Mdm2. […] The products were resolved by SDS-PAGE and analyzed by Western blot with anti-p53, anti-Mdm2 SMP14, 2A10, 3G5 mix, or anti-MdmX antibodies. […]
Referring now to FIG. 28b, as shown, Mdm2 in vitro ubiquitination is not inhibited by MEL17 treatment. […] Samples were analyzed by Western blotting with anti-Mdm2 antibodies. […]

[2] = molecular target: T2, Flag-Mdm2-HA-MdmX complex (Homo sapiens, UniProt O15151+Q00987); experiment: in vitro ubiquitination assay, Flag-Mdm2/HA-MdmX complex; format: biochemical
T2 construct: unlike the full-length complex, which was produced through co-expression of Mdm2 and MdmX in SF9 cells; made in house; host or cells: Sf9 insect cells, co-infection; purified on M2-agarose, then HA-agarose
T2 sequence (Q00987 whole entry): as above
T2 sequence (O15151 whole entry): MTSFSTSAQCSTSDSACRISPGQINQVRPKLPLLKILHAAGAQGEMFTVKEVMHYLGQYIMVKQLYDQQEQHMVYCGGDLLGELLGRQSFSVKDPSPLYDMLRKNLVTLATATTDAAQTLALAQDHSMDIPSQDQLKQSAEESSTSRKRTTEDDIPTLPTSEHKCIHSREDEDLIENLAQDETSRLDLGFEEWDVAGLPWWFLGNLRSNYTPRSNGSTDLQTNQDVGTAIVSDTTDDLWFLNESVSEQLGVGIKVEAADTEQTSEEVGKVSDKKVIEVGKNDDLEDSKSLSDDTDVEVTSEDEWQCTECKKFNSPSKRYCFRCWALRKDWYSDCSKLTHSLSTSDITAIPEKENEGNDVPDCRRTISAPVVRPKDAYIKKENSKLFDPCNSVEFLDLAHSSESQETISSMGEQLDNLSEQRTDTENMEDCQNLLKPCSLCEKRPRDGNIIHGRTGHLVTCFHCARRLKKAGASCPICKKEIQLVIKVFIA
Experimental: These assays were performed with 100 ng of full-length Flag-Mdm2 or 200 ng of Flag-Mdm2/HA-MdmX complexes (100 ng of each protein as each are present in a 1:1 ratio, when purified), ^32P-labeled ubiquitin, UbCH5c, and E1. Following a 30-minute incubation at 37° C., reactions were terminated and resolved on a SDS-PAGE gel followed by autoradiography. PC indicates positive control, and NC indicates negative control with UbCH5C eliminated from the reaction. The gels were quantified by phosphoimaging using ImageQuant software (GE Healthcare Bio-Sciences Corp., Piscataway, N.J.). […]
Ubiquitin reactions contain 50 ng E1, 1 μg PK-ubiquitin, 50 ng His-UbCH5C, and 100 ng Flag-Mdm2. […] The products were resolved by SDS-PAGE and analyzed by Western blotting with anti-p53, anti-Mdm2 SMP14, 2A10, 3G5 mix, or anti-MdmX. […] The graph represents the quantification of the Mdm2-ubiquitin species, normalized to the positive control. […]
as §2

CCCCn1c(=O)[nH]c(O)c(C2NCCc3c2[nH]c2ccccc32)c1=O (stereo not shown) [MEL23]
mRNA levels of p53 target genes Mdm2, p21, Bax, puma [1]: increased within 48 hours of treatment; also recorded: increased the transcription of p53 target genes to intermediate levels compared to doxorubicin and ALLN | Mdm2 ligase activity (full-length Mdm2 in vitro ubiquitination) (full-length Flag-Mdm2): little to no inhibitory effect | ligase activity of the Mdm2-MdmX complex in vitro [2]: significantly decreased the overall ligase activity; also recorded: inhibited | activity of the Mdm2-MdmX complex toward p53 in vitro ([2]; Western blot): inhibited the activity of the Mdm2-MdmX complex toward p53
